Blank lines part the entries; values can stand above or below the molecule they belong to.
Legend:
IDO = settings: cited from earlier work; for type of IDO inhibition: literature
human IDO = human IDO (Homo sapiens, UniProt P14902); assay: IDO inhibition assay (formation of kynurenine, read at 490 nm); type: biochemical; settings: for Ki / Ki (IDO inhibition data): average of two or three trials, inhibitors tested at 200 and 400 μM, L-Trp 200 to 25 μM, N.I. = no inhibition detected
Chain of human IDO (P14902 whole entry): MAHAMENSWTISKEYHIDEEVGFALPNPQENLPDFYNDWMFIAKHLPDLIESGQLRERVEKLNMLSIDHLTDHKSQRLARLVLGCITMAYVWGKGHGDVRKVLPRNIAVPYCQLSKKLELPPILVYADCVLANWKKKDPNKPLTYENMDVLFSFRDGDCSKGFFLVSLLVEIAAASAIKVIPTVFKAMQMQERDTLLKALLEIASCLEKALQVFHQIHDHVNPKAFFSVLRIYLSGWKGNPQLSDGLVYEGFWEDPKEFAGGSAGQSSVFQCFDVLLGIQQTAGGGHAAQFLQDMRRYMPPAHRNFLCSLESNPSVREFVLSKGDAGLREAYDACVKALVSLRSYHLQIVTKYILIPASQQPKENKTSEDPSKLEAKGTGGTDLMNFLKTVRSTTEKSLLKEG

Molecule: CCCCc1cc2c(cn1)[nH]c1ccccc12 [3-butyl-β-carboline]
Ki (IDO; literature value): 3.3 µM
type of IDO inhibition (IDO): non-competitive

Molecule: S=C(S)N1CCCC1 [pyrrolidine dithiocarbamate]
effect on IDO in words (IDO; literature report): inhibits IDO

Molecule: c1ccc2c(c1)[nH]c1cnccc12 [β-carboline]
type of IDO inhibition (IDO): non-competitive

More lines, now with the values ahead:

IDO inhibitory activity in words (human IDO): significant inhibitory activity
Ki (human IDO): 62.4 µM
Molecule: CSC(=S)NCCc1ccccc1 [Compound 9, N-Phenethyl-S-methyl-dithiocarbamate]

melting point: 148 to 150 °C
IDO inhibitory activity in words (human IDO): weaker or no inhibition
Ki (IDO inhibition data) (human IDO): N.I.^a
Molecule: CNC(=S)NCc1c[nH]c2ccccc12 [Compound 19, N-[l-(Indol-3-yl)methyl]-N′-methyl-thiourea]

IDO inhibitory activity in words (human IDO): complete loss in inhibitory activity
Ki (IDO inhibition data) (human IDO): N.I.
Molecule: CSC(=O)NCc1c[nH]c2ccccc12 [Compound 21, Brassitin, reference compound]

Ki (human IDO): 180 µM
Molecule: N-(Adamant-2-yl)-S-methyl-dithiocarbamate [Compound 6]
